Assay results as given in ChEMBL document CHEMBL1136586, “Structure-activity relationship of linear peptide Bu-His6-DPhe7-Arg8-Trp9-Gly10-NH2 at the human melanocortin-1 and -4 receptors: DPhe7 and Trp9 substitution” (Bioorg Med Chem Lett, 2003).
Square brackets hold non-standard residues; d marks the D form. Peptide text beside a SMILES is read from it. * marks the point of attachment. Phe(3-CF3) = N[C@@H](Cc1cccc(C(F)(F)F)c1)C(=O)O; Phe(4-Br) = N[C@@H](Cc1ccc(Br)cc1)C(=O)O; Phe(4-Cl) = N[C@@H](Cc1ccc(Cl)cc1)C(=O)O; Phe(4-Me) = Cc1ccc(C[C@H](N)C(=O)O)cc1; Butyryl = CCCC(=O)*

What was measured:
Melanocortin receptor 4 [1] = molecular target: T1, Melanocortin receptor 4 (Homo sapiens, UniProt P32245); assay: (§1) Effective concentration against hMC4R using HEK293 cells was determined by measuring cAMP accumulation; format: functional, cell-based
T1 sequence (P32245 whole entry): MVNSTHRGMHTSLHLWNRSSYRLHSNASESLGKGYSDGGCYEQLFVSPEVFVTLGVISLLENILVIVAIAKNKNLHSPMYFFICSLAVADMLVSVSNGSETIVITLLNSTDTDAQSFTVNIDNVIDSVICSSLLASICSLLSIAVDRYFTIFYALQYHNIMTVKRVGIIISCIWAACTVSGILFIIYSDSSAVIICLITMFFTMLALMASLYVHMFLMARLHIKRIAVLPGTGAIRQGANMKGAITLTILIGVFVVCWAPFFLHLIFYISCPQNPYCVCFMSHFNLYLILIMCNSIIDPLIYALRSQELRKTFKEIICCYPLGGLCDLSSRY

[2] = molecular target: T2, Melanocyte-stimulating hormone receptor (Homo sapiens, UniProt Q01726); assay: Effective concentration against hMC1R using HEK293 cells was determined by measuring the cAMP accumulation; format: functional, cell-based
T2 sequence (Q01726 whole entry): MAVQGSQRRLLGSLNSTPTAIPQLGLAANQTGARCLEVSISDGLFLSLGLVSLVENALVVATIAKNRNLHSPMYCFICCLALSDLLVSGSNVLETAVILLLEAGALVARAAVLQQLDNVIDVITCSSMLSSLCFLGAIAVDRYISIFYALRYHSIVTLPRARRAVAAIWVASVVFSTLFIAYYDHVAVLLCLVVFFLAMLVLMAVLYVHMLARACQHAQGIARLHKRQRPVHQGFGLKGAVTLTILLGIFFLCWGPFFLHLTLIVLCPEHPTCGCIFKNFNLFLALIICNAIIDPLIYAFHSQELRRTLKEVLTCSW

[3] = molecular target: T2, Melanocyte-stimulating hormone receptor; assay: Inhibitory concentration of compound was determined against hMC1R through displacement of NDP-MSH radioligand using HEK293 cells; format: cell-based
Melanocortin receptor 4 [4] = molecular target: T1, Melanocortin receptor 4; assay: Inhibitory concentration of compound was determined against hMC4R through displacement of NDP-MSH radioligand using HEK293 cells; format: cell-based
Melanocortin receptor 4 [5] = molecular target: T1, Melanocortin receptor 4; assay: (§2) Effective concentration against hMC4R using HEK293 cells was determined by measuring cAMP accumulation at 50 uM; format: functional, cell-based
Melanocortin receptor 4 [6] = molecular target: T1, Melanocortin receptor 4; assay: as §1; format: functional, cell-based; remark: listed apart in the source
Melanocortin receptor 4 [7] = molecular target: T1, Melanocortin receptor 4; assay: as §2; format: functional, cell-based; remark: listed apart in the source

Question: With `CCCC(=O)N[C@@H](Cc1cnc[nH]1)C(=O)N[C@@H](Cc1ccc(C)cc1)C(=O)N[C@@H](CCCNC(=N)N)C(=O)N[C@@H](Cc1c[nH]c2ccccc12)C(=O)NCC(N)=O` (Butyryl-H[Phe(4-Me)]RWG-NH2) as the compound, how does the EC50 (Melanocortin receptor 4 [1]) read?
Answer: 77 nM

Question: And the EC50 [2]?
Answer: 55 nM

Question: What does the source list for `CCCC(=O)N[C@@H](Cc1c[nH]cn1)C(=O)NC(Cc1ccccc1)C(=O)N[C@@H](CCCN=C(N)N)C(=O)N[C@@H](Cc1cccc2ccccc12)C(=O)NCC(N)=O` (single isomer, unassigned)?
Answer: EC50 (Melanocortin receptor 4 [1]): 140 nM; IC50 [3]: 1200 nM; EC50 [2]: 150 nM; IC50 (Melanocortin receptor 4 [4]): 600 nM

Question: Which results are given for `CCCC(=O)N[C@@H](Cc1cnc[nH]1)C(=O)N[C@H](Cc1ccccc1)C(=O)N[C@@H](CCCNC(=N)N)C(=O)N[C@@H](Cc1csc2ccccc12)C(=O)NCC(N)=O`?
Answer: EC50 (Melanocortin receptor 4 [1]): 100 nM; IC50 [3]: 2880 nM; EC50 [2]: 274 nM; IC50 (Melanocortin receptor 4 [4]): 1000 nM

Question: For `CCCC(=O)N[C@@H](Cc1c[nH]cn1)C(=O)NC(Cc1ccccc1)C(=O)N[C@@H](CCCN=C(N)N)C(=O)NC(Cc1c[nH]c2ccccc12)C(=O)NCC(N)=O` (single isomer, unassigned), which EC50 [2] is on record?
Answer: 110 nM

Question: What about the EC50 (Melanocortin receptor 4 [5]) of the same compound?
Answer: 110 nM

Question: Which ED50 (Melanocortin receptor 4 [6]) does the source give for `CCCC(=O)N[C@@H](Cc1c[nH]cn1)C(=O)NC(Cc1ccccc1)C(=O)N[C@@H](CCCN=C(N)N)C(=O)N[C@@H](Cc1ccc(Cl)c(Cl)c1)C(=O)NCC(N)=O` (single isomer, unassigned) here?
Answer: 194 nM

Question: And the EC50 [2]?
Answer: 1 nM

Question: Which results are given for `CCCC(=O)N[C@@H](Cc1cnc[nH]1)C(=O)N[C@@H](Cc1ccccc1)C(=O)N[C@@H](CCCNC(=N)N)C(=O)N[C@@H](Cc1c[nH]c2ccccc12)C(=O)NCC(N)=O`?
Answer: EC50 (Melanocortin receptor 4 [1]): 20 nM; IC50 [3]: 575 nM; EC50 [2]: 10 nM; IC50 (Melanocortin receptor 4 [4]): 150 nM

Question: `CCCC(=O)N[C@@H](Cc1c[nH]cn1)C(=O)NC(Cc1cccs1)C(=O)N[C@@H](CCCN=C(N)N)C(=O)N[C@@H](Cc1c[nH]c2ccccc12)C(=O)NCC(N)=O` (single isomer, unassigned) was tested. Which EC50 [2] did it give?
Answer: 4 nM

Question: And the EC50 (Melanocortin receptor 4 [5])?
Answer: 8 nM

Question: Which IC50 [3] does the source give for `CCCC(=O)N[C@@H](Cc1c[nH]cn1)C(=O)N[C@H](Cc1ccc(Cl)c(Cl)c1)C(=O)N[C@@H](CCCN=C(N)N)C(=O)N[C@@H](Cc1c[nH]c2ccccc12)C(=O)NCC(N)=O` here?
Answer: 250 nM

Question: What about the inhibition (Melanocortin receptor 4 [7]) of the same compound?
Answer: 0%

Question: And the EC50 [2]?
Answer: 10 nM

Question: What about the IC50 (Melanocortin receptor 4 [4]) of the same compound?
Answer: 4 nM

Question: How did the EC50 (Melanocortin receptor 4 [1]) turn out when `CCCC(=O)N[C@@H](Cc1c[nH]cn1)C(=O)N[C@H](Cc1cccc2ccccc12)C(=O)N[C@@H](CCCN=C(N)N)C(=O)N[C@@H](Cc1c[nH]c2ccccc12)C(=O)NCC(N)=O` was run?
Answer: 65 nM

Question: What about the IC50 [3] of the same compound?
Answer: 4000 nM

Question: And the EC50 [2]?
Answer: 30 nM

Question: What about the IC50 (Melanocortin receptor 4 [4]) of the same compound?
Answer: 350 nM

Question: With `CCCC(=O)N[C@@H](Cc1cnc[nH]1)C(=O)N[C@@H](Cc1cccc(C(F)(F)F)c1)C(=O)N[C@@H](CCCNC(=N)N)C(=O)N[C@@H](Cc1c[nH]c2ccccc12)C(=O)NCC(N)=O` (Butyryl-H[Phe(3-CF3)]RWG-NH2) as the compound, how does the EC50 (Melanocortin receptor 4 [1]) read?
Answer: 45 nM

Question: What about the IC50 [3] of the same compound?
Answer: 9600 nM

Question: And the EC50 [2]?
Answer: 611 nM

Question: And the IC50 (Melanocortin receptor 4 [4])?
Answer: 300 nM

Question: Which results are given for `CCCC(=O)N[C@@H](Cc1c[nH]cn1)C(=O)N[C@@H](Cc1ccc(Br)cc1)C(=O)N[C@@H](CCCN=C(N)N)C(=O)N[C@@H](Cc1c[nH]c2ccccc12)C(=O)NCC(N)=O` (Butyryl-H[Phe(4-Br)]RWG-NH2)?
Answer: EC50 (Melanocortin receptor 4 [1]): 13 nM; IC50 [3]: 300 nM; EC50 [2]: 54 nM; IC50 (Melanocortin receptor 4 [4]): 22 nM

Question: `CCCC(=O)N[C@@H](Cc1c[nH]cn1)C(=O)NC(Cc1ccccc1)C(=O)N[C@@H](CCCN=C(N)N)C(=O)N[C@@H](Cc1ccc2ccccc2c1)C(=O)NCC(N)=O` (single isomer, unassigned) was tested. Which EC50 (Melanocortin receptor 4 [1]) did it give?
Answer: 25 nM

Question: What about the IC50 [3] of the same compound?
Answer: 600 nM

Question: What about the EC50 [2] of the same compound?
Answer: 14 nM

Question: And the IC50 (Melanocortin receptor 4 [4])?
Answer: 50 nM

Question: `CCCC(=O)N[C@@H](Cc1c[nH]cn1)C(=O)N[C@@H](Cc1ccc(OC)cc1)C(=O)N[C@@H](CCCN=C(N)N)C(=O)N[C@@H](Cc1c[nH]c2ccccc12)C(=O)NCC(N)=O` (Butyryl-HY(Me)RWG-NH2) was tested. Which EC50 (Melanocortin receptor 4 [1]) did it give?
Answer: 60 nM

Question: And the IC50 [3]?
Answer: 70 nM

Question: And the EC50 [2]?
Answer: 0.4 nM

Question: And the IC50 (Melanocortin receptor 4 [4])?
Answer: 120 nM

Question: Which EC50 (Melanocortin receptor 4 [1]) does the source give for `CCCC(=O)N[C@@H](Cc1cnc[nH]1)C(=O)N[C@@H](Cc1ccc(Cl)cc1)C(=O)N[C@@H](CCCNC(=N)N)C(=O)N[C@@H](Cc1c[nH]c2ccccc12)C(=O)NCC(N)=O` (Butyryl-H[Phe(4-Cl)]RWG-NH2) here?
Answer: 20 nM

Question: What about the IC50 [3] of the same compound?
Answer: 300 nM

Question: What about the EC50 [2] of the same compound?
Answer: 20 nM

Question: What about the IC50 (Melanocortin receptor 4 [4]) of the same compound?
Answer: 80 nM

Question: For `CCCC(=O)N[C@@H](Cc1c[nH]cn1)C(=O)NC(Cc1ccc(OCC)cc1)C(=O)N[C@@H](CCCN=C(N)N)C(=O)N[C@@H](Cc1c[nH]c2ccccc12)C(=O)NCC(N)=O` (single isomer, unassigned), which EC50 (Melanocortin receptor 4 [1]) is on record?
Answer: 16 nM

Question: And the IC50 [3]?
Answer: 16 nM

Question: What about the EC50 [2] of the same compound?
Answer: 0.1 nM

Question: And the IC50 (Melanocortin receptor 4 [4])?
Answer: 100 nM

Question: `CCCC(=O)N[C@@H](Cc1c[nH]cn1)C(=O)N[C@H](Cc1ccc2ccccc2c1)C(=O)N[C@@H](CCCN=C(N)N)C(=O)N[C@@H](Cc1c[nH]c2ccccc12)C(=O)NCC(N)=O` was tested. Which IC50 [3] did it give?
Answer: 5000 nM

Question: And the inhibition (Melanocortin receptor 4 [7])?
Answer: 0%

Question: And the EC50 [2]?
Answer: 48 nM

Question: And the IC50 (Melanocortin receptor 4 [4])?
Answer: 30 nM

Question: With `CCCC(=O)N[C@@H](Cc1cnc[nH]1)C(=O)N[C@@H](Cc1ccc(O)cc1)C(=O)N[C@@H](CCCNC(=N)N)C(=O)N[C@@H](Cc1c[nH]c2ccccc12)C(=O)NCC(N)=O` (Butyryl-HYRWG-NH2) as the compound, how does the EC50 (Melanocortin receptor 4 [1]) read?
Answer: 1150 nM

Question: And the EC50 [2]?
Answer: 180 nM
